Key:
[1] = biological target: Mast/stem cell growth factor receptor Kit (Homo sapiens) (UniProt P10721); assay: Inhibition of wild-type human partial length autoinhibited KIT (Y545 to D952 residues) expressed in mammalian expression system at 1 uM by Kinomescan method relative to control
[2] = biological target: Atypical kinase COQ8B, mitochondrial (Homo sapiens) (UniProt Q96D53); assay: Inhibition of wild-type human full length ADCK4 (M1 to S544 residues) expressed in bacterial expression system at 1 uM by Kinomescan method relative to control
[3] = test system: Proto-oncogene tyrosine-protein kinase receptor Ret (Homo sapiens), P07949 [V804M]; assay: Inhibition of human partial length RET V804M mutant (E713 to D1014 residues) expressed in bacterial expression system at 1 uM by Kinomescan method relative to control
[4] = biological target: Serine/threonine-protein kinase Nek10 (Homo sapiens) (UniProt Q6ZWH5); assay: Inhibition of wild-type human partial length NEK10 (L488 to R809 residues) expressed in mammalian expression system at 1 uM by Kinomescan method relative to control
[5] = biological target: Mitogen-activated protein kinase kinase kinase kinase 4 (Homo sapiens) (UniProt O95819); assay: Inhibition of wild-type human partial length MAP4K4 (M1 to R310 residues) expressed in bacterial expression system at 1 uM by Kinomescan method relative to control
[6] = biological target: Testis-specific serine/threonine-protein kinase 1 (Homo sapiens) (UniProt Q9BXA7); assay: Inhibition of wild-type human full length TSSK1B (M1 to Q367 residues) expressed in bacterial expression system at 1 uM by Kinomescan method relative to control
[7] = biological target: Serine/threonine-protein kinase TAO1 (Homo sapiens) (UniProt Q7L7X3); assay: Inhibition of wild-type human partial length TAOK1 (M1 to A320 residues) expressed in mammalian expression system at 1 uM by Kinomescan method relative to control
[8] = biological target: Tyrosine-protein kinase BTK (Homo sapiens, UniProt Q06187); assay: Inhibition of BTK in human PBMC assessed as reduction in CD69 expression
[9] = biological target: Ephrin type-B receptor 3 (Homo sapiens) (UniProt P54753); assay: Inhibition of wild-type human partial length EPHB3 (Q599 to T928 residues) expressed in bacterial expression system at 1 uM by Kinomescan method relative to control
[10] = biological target: Mitogen-activated protein kinase kinase kinase 11 (Homo sapiens) (UniProt Q16584); assay: Inhibition of wild-type human partial length MLK3 (I77 to W399 residues) expressed in bacterial expression system at 10 uM by Kinomescan method relative to control
[11] = biological target: Serine/threonine-protein kinase TBK1 (Homo sapiens) (UniProt Q9UHD2); assay: Inhibition of wild-type human full length TBK1 (M1 to L729 residues) expressed in mammalian expression system at 10 uM by Kinomescan method relative to control
[12] = biological target: Mitogen-activated protein kinase kinase kinase 20 (Homo sapiens) (UniProt Q9NYL2); assay: Inhibition of wild-type human partial length ZAK (M1 to L331 residues) expressed in bacterial expression system at 10 uM by Kinomescan method relative to control
[13] = test system: Mast/stem cell growth factor receptor Kit (Homo sapiens), P10721 [A829P]; assay: Inhibition of human partial length KIT A829P mutant (I571 to D952 residues) expressed in mammalian expression system at 10 uM by Kinomescan method relative to control
[14] = biological target: Death-associated protein kinase 2 (Homo sapiens) (UniProt Q9UIK4); assay: Inhibition of wild-type human full length DAPK2 (M1 to S370 residues) expressed in bacterial expression system at 10 uM by Kinomescan method relative to control
[15] = biological target: Mitogen-activated protein kinase kinase kinase kinase 3 (Homo sapiens) (UniProt Q8IVH8); assay: Inhibition of wild-type human partial length MAP4K3 (M1 to D301 residues) expressed in bacterial expression system at 10 uM by Kinomescan method relative to control
[16] = test system: Receptor-type tyrosine-protein kinase FLT3 (Homo sapiens), P36888 [K663Q]; assay: Inhibition of human partial length FLT3 K663Q mutant (V592 to Y969 residues) expressed in bacterial expression system at 10 uM by Kinomescan method relative to control
[17] = test system: Epidermal growth factor receptor (Homo sapiens), P00533 [L861Q]; assay: Inhibition of human partial length EGFR L861Q mutant (R669 to V1011 residues) expressed in bacterial expression system at 10 uM by Kinomescan method relative to control
[18] = test system: Tyrosine-protein kinase ABL1 (Homo sapiens), P00519 [E255K]; assay: Inhibition of human phosphorylated ABL1 E255K mutant (S229 to K512 residues) expressed in mammalian expression system at 10 uM by Kinomescan method relative to control
[19] = biological target: Phosphatidylinositol 4-phosphate 5-kinase type-1 gamma (Homo sapiens) (UniProt O60331); assay: Inhibition of wild-type human partial length PIP5K1C (M1 to T668 residues) expressed in mammalian expression system at 10 uM by Kinomescan method relative to control
[20] = biological target: Serine/threonine-protein kinase ICK (Homo sapiens) (UniProt Q9UPZ9); assay: Inhibition of wild-type human partial length ICK (M1 to P314 residues) expressed in mammalian expression system at 10 uM by Kinomescan method relative to control
[21] = biological target: Tyrosine-protein kinase receptor TYRO3 (Homo sapiens) (UniProt Q06418); assay: Inhibition of wild-type human partial length TYRO3 (S497 to T814 residues) expressed in bacterial expression system at 10 uM by Kinomescan method relative to control
[22] = biological target: Ribosomal protein S6 kinase alpha-6 (Homo sapiens) (UniProt Q9UK32); assay: Inhibition of wild-type human partial length C-terminal RSK4 kinase domain 2 (I401 to Y711 residues) expressed in bacterial expression system at 10 uM by Kinomescan method relative to control
[23] = biological target: Serine/threonine-protein kinase MRCK beta (Homo sapiens) (UniProt Q9Y5S2); assay: Inhibition of wild-type human partial length MRCKB (L56 to S417 residues) expressed in bacterial expression system at 10 uM by Kinomescan method relative to control
[24] = test system: Mast/stem cell growth factor receptor Kit (Homo sapiens), P10721 [UNDEFINED MUTATION]; assay: Inhibition of human partial length KIT V559D/V654 double mutant (Y545 to D952 residues) expressed in bacterial expression system at 10 uM by Kinomescan method relative to control
[25] = biological target: Tyrosine-protein kinase Fer (Homo sapiens) (UniProt P16591); assay: Inhibition of wild-type human partial length FER (S542 to T822 residues) expressed in bacterial expression system at 10 uM by Kinomescan method relative to control
[26] = biological target: Serine/threonine-protein kinase pim-1 (Homo sapiens) (UniProt P11309); assay: Inhibition of wild-type human partial length PIM1 (A15 to K313 residues) expressed in bacterial expression system at 10 uM by Kinomescan method relative to control
[27] = biological target: Tyrosine-protein kinase Blk (Homo sapiens) (UniProt P51451); assay: Inhibition of wild-type human partial length BLK (G211 to L503 residues) expressed in bacterial expression system at 10 uM by Kinomescan method relative to control

For `O=C(Nc1cccc([C@@H]2CN(c3ncnc4[nH]ccc34)CCN2CCO)c1)Nc1c(F)cccc1N1CCCC1`, which inhibition [1] is on record?
The inhibition was 100%.

What about the inhibition [2] of the same compound?
The inhibition was 92%.

And the inhibition [3]?
Its inhibition is 0.95%.

And the inhibition [4]?
The inhibition was 26%.

And the inhibition [5]?
The inhibition was 100%.

And the inhibition [6]?
Its inhibition is 100%.

What about the inhibition [7] of the same compound?
Its inhibition is 79%.

What about the IC50 [8] of the same compound?
Its IC50 is 0.24 µM.

What about the inhibition [9] of the same compound?
Its inhibition is 100%.

How did the inhibition [10] turn out when `O=C(Nc1cccc([C@H]2CCCN(c3ncnc4[nH]ccc34)C2)c1)Nc1ccccc1N1CCCC1` was run?
The inhibition was 85%.

What about the inhibition [11] of the same compound?
The inhibition was 57%.

What about the inhibition [12] of the same compound?
Its inhibition is 100%.

What about the inhibition [13] of the same compound?
Its inhibition is 15%.

And the inhibition [14]?
Its inhibition is 7.1%.

What about the inhibition [15] of the same compound?
Its inhibition is 47%.

What about the inhibition [16] of the same compound?
The inhibition was 8.1%.

And the inhibition [17]?
Its inhibition is 85%.

And the inhibition [18]?
The inhibition was 35%.

What about the inhibition [19] of the same compound?
The inhibition was 59%.

What about the inhibition [20] of the same compound?
Its inhibition is 100%.

And the inhibition [21]?
Its inhibition is 100%.

What about the inhibition [22] of the same compound?
Its inhibition is 50%.

What about the inhibition [23] of the same compound?
The inhibition was 90%.

And the inhibition [24]?
Its inhibition is 26%.

What about the inhibition [25] of the same compound?
The inhibition was 80%.

What about the inhibition [26] of the same compound?
The inhibition was 84%.

And the inhibition [27]?
Its inhibition is 43%.

Reference: ChEMBL document CHEMBL4387741, “Optimization of novel reversible Bruton's tyrosine kinase inhibitors identified using Tethering-fragment-based screens” (Bioorg Med Chem, 2019)
